As a reminder, the kinact/KI is the second-order rate constant of inactivation.

Assay [1] relates to cellular ISGylation in EL4 cells. Briefly: ISGylation accumulation in mouse IFN-β-stimulated EL4 cells (anti-mISG15 western blot). The class given is cell-based. To be noted: 4 h treatment; for effect on cellular ISGylation: anti-mISG15 blot. The protocol:
Figure 6 Inhibition of murine USP18 activity in living cells. a) Gel‐based ABPP potency assessment using a Rho‐mISG15ct‐PA probe in HEK293T cells overexpressing Flag‐mUSP18. At 24 h following transfection, cells were incubated with DMSO or increasing concentrations of indicated inhibitors for 4 h, lysed, and treated with Rho‐mISG15ct‐PA probe. Top panel: fluorescence scan. Middle panel: anti‐Flag western blot. Bottom panel: anti‐GAPDH western blot confirms equal loading. b) Accumulation of ISGylation in mouse IFN‐β‐stimulated EL4 cells. At 24 h following mouse IFN‐β treatment, cells were incubated with DMSO or increasing concentrations of indicated inhibitors for 4 h, lysed, and treated with Rho‐mISG15ct‐PA probe. Top panel: anti‐mISG15 western blot. Middle panel: fluorescence scan. Bottom panel: anti‐β‐actin western blot confirms equal loading.
Ultimately, we were interested in whether USP18 inhibitor treatment could result in a relevant phenotype in cells. USP18 is the major deISGylase to remove ISG15 from target proteins, and genetic inactivation of USP18 isopeptidase activity leads to enhanced ISGylation in vivo and in cells.^[ [26] ^] We therefore examined whether the USP18 inhibitors enhance cellular ISGylation. Accordingly, EL4 cells were stimulated with IFN‐β to induce the ISG15 machinery, prior to treatment with the inhibitors. After cell lysis and SDS‐PAGE, ISGylated proteins were stained by immunoblotting with an ISG15 antibody (Figure 6b, top panel). […] To confirm inhibition of endogenous USP18 in these experiments, samples were post‐lysis treated with Rho‐mISG15ct‐PA probe.
Generation of ISGylation and in-cell inhibition assay
Mouse EL4 cells were stimulated with 300 U/mL mouse IFN-β. At 24 hours following stimulation, cells were incubated with indicated compounds at the indicated final concentrations at 37 °C for 4 hours, then washed twice with PBS and harvested for further […]
Activity-based probe labelling
The in-cell inhibition of DUBs and mUSP18 was assessed using activity-based probe labelling assays. In brief, cell pellets were resuspended in HR buffer (50 mM Tris-HCl, 5 mM MgCl 2, 250 mM sucrose, 2 mM TCEP and a Protease inhibitor tablet (Roche), pH 7.4), and lysed by sonication (Bioruptor, Diagenode, high intensity for 10 minutes with an ON/OFF cycle of 30 seconds) at 4°C. 40 μg clarified cell lysate was incubated with Rhodamine-mISG15ct-propargylamide probe[1] (final concentration 1 μM) or Rhodamine-Ubiquitin-propargylamide probe[13] (final concentration 1 μM) at 37 °C for 30 min. Reactions were stopped by the addition of LDS (lithium dodecyl sulfate) sample buffer (Invitrogen Life Technologies, Carlsbad, CA, USA) containing 2.5% β-mercaptoethanol, followed by boiling for 7 minutes.
SDS-PAGE, in-gel fluorescence scanning, and immunoblotting
Samples were resolved on precast Bis-Tris NuPAGE Gels (Invitrogen, including 4-12%, and 10% for different samples) using MOPS buffer (Invitrogen Life Technologies, Carlsbad, CA, USA). For fluorescence scan, labeled enzymes were visualized by in-gel fluorescence using a Typhoon FLA 9500 imaging system (GE Healthcare Life Sciences) (Rhodamine channel for probe, Cy5 channel for protein marker).
For immunoblotting, proteins were transferred to a nitrocellulose membrane (Protan BA85, 0.45 μm, GE Healthcare) at 300 mA for 3 hours. […]
A general note: Immunoblotting shows a protein as a band on a membrane.

The target of assay [2] is T1, human USP18/ISG15 interaction (Homo sapiens, UniProt Q9UMW8).
T1 sequence (Q9UMW8 1-372): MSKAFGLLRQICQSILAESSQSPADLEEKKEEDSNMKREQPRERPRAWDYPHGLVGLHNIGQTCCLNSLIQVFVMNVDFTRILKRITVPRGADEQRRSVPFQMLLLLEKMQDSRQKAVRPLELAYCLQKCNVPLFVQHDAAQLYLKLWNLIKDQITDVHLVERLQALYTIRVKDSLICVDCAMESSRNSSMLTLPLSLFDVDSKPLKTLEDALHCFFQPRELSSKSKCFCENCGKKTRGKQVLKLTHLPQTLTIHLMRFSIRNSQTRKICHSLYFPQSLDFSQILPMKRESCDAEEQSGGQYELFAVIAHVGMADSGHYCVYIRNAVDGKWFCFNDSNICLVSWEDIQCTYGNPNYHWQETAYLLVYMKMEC
Briefly: NanoBRET assay, hUSP18/ISG15 interaction in HEK293T cells. A general note: Bioluminescence resonance energy transfer reports proximity on the nanometre scale.
Procedure: We tested whether our USP18 activity inhibitor could also affect USP18's nonenzymatic function using our recently developed NanoBRET assay to monitor the interactions of USP18 with STAT2 and ISG15.^[ [43] ^]
normalised to the DMSO control and inhibition was assessed by fitting the data to a dose-
Data are shown as mean ± SD from one biological replicate with
three technical replicates.
Transient NanoBRET assays were performed
following the manufacturer’s instructions (Promega). Briefly, HEK293T cells were transfected
with NanoLuc and HaloTag fusion vectors at 1:100 ratio (20 ng NanoLuc and 2 µg HaloTag
plasmid). After approx. 20 h, cells were harvested, resuspended in phenol red–free Opti-MEM
media supplemented with 4% FCS, and plated in white, flat-bottom, 96-well tissue culture
Immediately before signal detection,
NanoBRET Nano-Glo substrate (Promega) was added, and luminescence was recorded using
nm (HaloTag acceptor). The corrected NanoBRET ratio (mBU) was calculated by dividing the
acceptor signal by the donor signal and subtracting the background signal obtained from the

For assay [3], the target named is T2, mUSP18 (Mus musculus, UniProt Q9WTV6).
T2 construct: (46-368); His-tag (N); made in house
T2 sequence (Q9WTV6 46-368): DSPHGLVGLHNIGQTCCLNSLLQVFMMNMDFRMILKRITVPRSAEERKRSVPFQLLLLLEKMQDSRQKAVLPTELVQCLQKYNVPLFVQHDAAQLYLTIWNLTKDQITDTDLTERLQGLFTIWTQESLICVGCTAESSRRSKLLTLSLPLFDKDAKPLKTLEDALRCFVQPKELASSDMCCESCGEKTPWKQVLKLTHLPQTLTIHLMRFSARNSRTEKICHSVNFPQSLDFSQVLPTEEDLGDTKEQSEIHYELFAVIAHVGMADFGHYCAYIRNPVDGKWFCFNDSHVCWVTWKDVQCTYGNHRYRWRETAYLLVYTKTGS
Briefly: kinact/KI determination (kobs plot). The class given is biochemical, murine.

As to `Cc1cc(C(=O)N[C@H]2C[C@@H]3CN(C#N)C[C@@H]3C2)ccc1Br` [BB07CA28], in assay [1], the “concentration of maximum accumulation of ISGylation” value was 10 µM and the “effect on cellular ISGylation” value is on record as “significantly elevated cellular ISGylation”.

As to `Cc1cc(C(=O)N[C@H]2C[C@@H]3CN(C#N)C[C@@H]3C2)ccc1C(C)C` [BB07CA902], in assay [2], the “inhibition of hUSP18/ISG15 interaction” value was “did not observe any inhibition”. In assay [1], the “concentration of maximum accumulation of ISGylation” value was 10 µM and the “effect on cellular ISGylation” value is “significantly elevated cellular ISGylation”. Also, the kinact/KI in assay [3] stood at 4650 M⁻¹ s⁻¹.

The values are drawn from publication PMC12668310, “High‐Throughput Synthesis and Screening of a Cyanimide Library Identifies Selective Inhibitors of ISG15‐Specific Protease mUSP18” (Angewandte Chemie (International Ed. in English), 2025).
